Data as given in patent publication US10815230B2, “Casein kinase 1 delta inhibitor” (ELECTROPHORETICS LIMITED, priority 2015, dated 2020).

Assays:
Assay in all cases: KINOMEscan binding assay
Conditions in all cases: read-out: % Ctrl @ 10000 nM
TEC = TEC (Homo sapiens, UniProt P42680)
ERBB4 = ERBB4 (Homo sapiens, UniProt Q15303)
MAP3K2 = MAP3K2 (Homo sapiens, UniProt Q9Y2U5)
PAK4 = PAK4 (Homo sapiens, UniProt O96013)
MYO3A = MYO3A (Homo sapiens, UniProt Q8NEV4)
PRKCD = PRKCD (Homo sapiens, UniProt Q05655)
FGFR4 = FGFR4 (Homo sapiens, UniProt P22455)
Sequence of FGFR4 (P22455 22-802): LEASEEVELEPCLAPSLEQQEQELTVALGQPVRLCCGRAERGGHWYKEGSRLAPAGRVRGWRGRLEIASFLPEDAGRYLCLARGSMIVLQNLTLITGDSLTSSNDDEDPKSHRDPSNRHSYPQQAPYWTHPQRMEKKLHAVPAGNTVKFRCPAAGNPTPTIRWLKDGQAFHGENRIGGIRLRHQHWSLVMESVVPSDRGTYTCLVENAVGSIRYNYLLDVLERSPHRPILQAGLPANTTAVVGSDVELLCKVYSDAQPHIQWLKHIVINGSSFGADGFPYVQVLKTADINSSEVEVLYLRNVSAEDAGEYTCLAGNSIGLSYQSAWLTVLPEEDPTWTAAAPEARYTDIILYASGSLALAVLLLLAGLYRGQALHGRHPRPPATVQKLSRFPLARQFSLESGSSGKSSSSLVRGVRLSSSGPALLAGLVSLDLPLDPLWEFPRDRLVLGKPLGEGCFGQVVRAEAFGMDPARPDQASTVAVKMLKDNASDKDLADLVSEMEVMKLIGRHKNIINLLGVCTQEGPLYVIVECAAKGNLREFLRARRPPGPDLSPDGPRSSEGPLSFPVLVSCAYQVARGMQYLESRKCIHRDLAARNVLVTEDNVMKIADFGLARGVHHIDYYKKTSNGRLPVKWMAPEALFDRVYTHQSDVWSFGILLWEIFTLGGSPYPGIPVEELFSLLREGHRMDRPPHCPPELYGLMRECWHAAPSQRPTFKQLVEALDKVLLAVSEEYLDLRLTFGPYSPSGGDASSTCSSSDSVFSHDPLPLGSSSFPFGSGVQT

[1] = biological target: EGFR (L747-S752del, P753S) (Homo sapiens, UniProt P00533, DEL747-752/P753S)
CAMK1D = CAMK1D (Homo sapiens, UniProt Q8IU85)
AMPK-alpha2 = AMPK-alpha2 (Homo sapiens, UniProt P54646)
FES = FES (Homo sapiens, UniProt P07332)
CSF1R = CSF1R (Homo sapiens, UniProt P07333)
BIKE = BIKE (Homo sapiens, UniProt Q9NSY1)
PKMYT1 = PKMYT1 (Homo sapiens, UniProt Q99640)
IKK-beta = IKK-beta (Homo sapiens, UniProt O14920)
TAOK1 = TAOK1 (Homo sapiens, UniProt Q7L7X3)
ROCK2 = ROCK2 (Homo sapiens, UniProt O75116)
CSNK1G1 = CSNK1G1 (Homo sapiens, UniProt Q9HCP0)
ERK1 = ERK1 (Homo sapiens, UniProt P27361)
Sequence of ERK1 (P27361 whole entry): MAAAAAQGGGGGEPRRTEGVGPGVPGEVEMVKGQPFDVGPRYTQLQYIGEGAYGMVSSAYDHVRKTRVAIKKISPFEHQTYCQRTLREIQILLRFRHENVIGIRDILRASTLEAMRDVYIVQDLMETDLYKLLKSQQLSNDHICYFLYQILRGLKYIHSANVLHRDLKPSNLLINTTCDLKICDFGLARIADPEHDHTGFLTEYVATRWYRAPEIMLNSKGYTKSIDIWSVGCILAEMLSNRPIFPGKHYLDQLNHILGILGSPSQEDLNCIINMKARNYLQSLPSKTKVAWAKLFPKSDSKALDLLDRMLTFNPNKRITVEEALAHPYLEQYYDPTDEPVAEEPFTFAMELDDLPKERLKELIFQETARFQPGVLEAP

[2] = biological target: ABL1 (E255K) phosphorylated (Homo sapiens, UniProt P00519, E255K)
DCAMKL3 = DCAMKL3 (Homo sapiens, UniProt Q9C098)
TNIK = TNIK (Homo sapiens, UniProt Q9UKE5)
PIK3CA (E545A) = PIK3CA (E545A) (Homo sapiens, UniProt P42336, E545A)
Sequence of PIK3CA (E545A) (P42336 whole entry E545A): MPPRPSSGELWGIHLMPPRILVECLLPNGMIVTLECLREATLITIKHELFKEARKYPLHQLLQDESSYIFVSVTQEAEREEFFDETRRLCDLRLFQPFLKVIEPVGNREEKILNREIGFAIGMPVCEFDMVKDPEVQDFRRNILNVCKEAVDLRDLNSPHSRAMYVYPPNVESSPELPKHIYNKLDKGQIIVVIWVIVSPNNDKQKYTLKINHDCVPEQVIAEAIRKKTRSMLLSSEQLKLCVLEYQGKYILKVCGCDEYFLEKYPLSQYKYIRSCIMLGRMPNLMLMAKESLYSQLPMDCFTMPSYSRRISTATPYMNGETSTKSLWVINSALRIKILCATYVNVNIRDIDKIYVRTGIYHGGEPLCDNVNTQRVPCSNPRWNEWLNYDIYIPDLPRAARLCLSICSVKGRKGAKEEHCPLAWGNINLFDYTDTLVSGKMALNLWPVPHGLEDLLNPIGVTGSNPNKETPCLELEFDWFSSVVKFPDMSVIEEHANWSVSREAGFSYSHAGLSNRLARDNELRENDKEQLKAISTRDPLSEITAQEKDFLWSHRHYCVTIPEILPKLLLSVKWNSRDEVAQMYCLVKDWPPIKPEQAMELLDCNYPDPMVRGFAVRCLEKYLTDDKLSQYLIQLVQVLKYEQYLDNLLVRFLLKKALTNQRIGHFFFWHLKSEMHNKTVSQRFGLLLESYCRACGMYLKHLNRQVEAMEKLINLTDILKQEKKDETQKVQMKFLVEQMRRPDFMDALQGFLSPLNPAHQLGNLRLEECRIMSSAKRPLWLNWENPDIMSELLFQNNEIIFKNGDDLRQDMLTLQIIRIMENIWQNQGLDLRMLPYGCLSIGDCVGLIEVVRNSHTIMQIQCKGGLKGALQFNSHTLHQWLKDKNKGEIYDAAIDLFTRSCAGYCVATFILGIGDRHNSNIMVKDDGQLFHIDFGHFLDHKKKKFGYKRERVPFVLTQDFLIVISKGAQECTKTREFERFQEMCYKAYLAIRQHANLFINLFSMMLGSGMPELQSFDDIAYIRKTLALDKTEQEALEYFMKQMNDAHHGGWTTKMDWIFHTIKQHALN

CSNK1A1 = CSNK1A1 (Homo sapiens, UniProt P48729)
KIT (A829P) = KIT (A829P) (Homo sapiens, UniProt P10721, A829P)
AURKA = AURKA (Homo sapiens, UniProt O14965)
FGR = FGR (Homo sapiens, UniProt P09769)
ERK2 = ERK2 (Homo sapiens, UniProt P28482)
PKN2 = PKN2 (Homo sapiens, UniProt Q16513)
Sequence of PKN2 (Q16513 whole entry): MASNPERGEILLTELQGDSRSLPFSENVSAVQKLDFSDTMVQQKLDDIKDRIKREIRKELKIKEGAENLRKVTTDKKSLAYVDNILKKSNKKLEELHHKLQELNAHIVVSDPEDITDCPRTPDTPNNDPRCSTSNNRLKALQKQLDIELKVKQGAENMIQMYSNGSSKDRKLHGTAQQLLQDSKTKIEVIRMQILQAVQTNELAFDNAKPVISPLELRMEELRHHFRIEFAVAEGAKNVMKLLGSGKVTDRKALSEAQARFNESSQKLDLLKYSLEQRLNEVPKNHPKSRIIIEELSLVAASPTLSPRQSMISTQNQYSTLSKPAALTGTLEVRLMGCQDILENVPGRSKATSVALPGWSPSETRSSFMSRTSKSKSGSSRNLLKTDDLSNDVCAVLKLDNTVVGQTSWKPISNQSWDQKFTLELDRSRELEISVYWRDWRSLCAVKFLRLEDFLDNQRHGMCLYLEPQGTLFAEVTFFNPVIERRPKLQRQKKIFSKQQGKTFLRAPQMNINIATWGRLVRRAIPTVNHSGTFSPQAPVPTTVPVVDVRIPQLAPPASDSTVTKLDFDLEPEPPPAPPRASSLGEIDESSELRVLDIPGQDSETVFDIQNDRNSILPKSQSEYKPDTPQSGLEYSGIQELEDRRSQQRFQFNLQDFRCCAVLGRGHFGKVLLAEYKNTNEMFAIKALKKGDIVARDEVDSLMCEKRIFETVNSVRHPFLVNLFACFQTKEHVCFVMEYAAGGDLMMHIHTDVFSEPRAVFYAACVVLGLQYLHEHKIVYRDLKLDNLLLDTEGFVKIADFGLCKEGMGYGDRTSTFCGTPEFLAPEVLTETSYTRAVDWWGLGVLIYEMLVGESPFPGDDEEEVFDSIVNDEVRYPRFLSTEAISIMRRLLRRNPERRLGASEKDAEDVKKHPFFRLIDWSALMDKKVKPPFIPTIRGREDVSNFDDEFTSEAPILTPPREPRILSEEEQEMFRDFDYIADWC

BMPR2 = BMPR2 (Homo sapiens, UniProt Q13873)
IKK-epsilon = IKK-epsilon (Homo sapiens, UniProt Q14164)
PIK3CA (Q546K) = PIK3CA (Q546K) (Homo sapiens, UniProt P42336, Q546K)
Sequence of PIK3CA (Q546K) (P42336 whole entry Q546K): as the sequence (P42336 whole entry E545A) above, with A545E, Q546K counted along it

BMPR1A = BMPR1A (Homo sapiens, UniProt P36894)
Sequence of BMPR1A (P36894 24-532): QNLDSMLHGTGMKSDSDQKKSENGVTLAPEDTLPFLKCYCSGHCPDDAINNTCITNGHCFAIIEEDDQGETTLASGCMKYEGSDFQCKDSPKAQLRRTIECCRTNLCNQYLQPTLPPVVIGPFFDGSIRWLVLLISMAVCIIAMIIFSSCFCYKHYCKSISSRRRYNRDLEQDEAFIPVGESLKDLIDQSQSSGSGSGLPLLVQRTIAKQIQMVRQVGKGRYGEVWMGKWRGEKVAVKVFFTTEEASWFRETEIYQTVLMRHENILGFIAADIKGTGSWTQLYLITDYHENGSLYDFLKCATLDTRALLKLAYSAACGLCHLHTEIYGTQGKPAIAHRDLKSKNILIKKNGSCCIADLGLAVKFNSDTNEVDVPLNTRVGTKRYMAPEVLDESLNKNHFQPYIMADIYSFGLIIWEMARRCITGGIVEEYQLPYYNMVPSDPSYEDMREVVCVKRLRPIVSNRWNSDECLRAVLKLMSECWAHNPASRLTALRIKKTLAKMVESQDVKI

CTK = CTK (Homo sapiens, UniProt P42679)
HUNK = HUNK (Homo sapiens, UniProt P57058)
PRKD3 = PRKD3 (Homo sapiens, UniProt O94806)
KIT-autoinhibited = KIT-autoinhibited (Homo sapiens, UniProt P10721)
MEK1 = MEK1 (Homo sapiens, UniProt Q02750)
Sequence of MEK1 (Q02750 whole entry): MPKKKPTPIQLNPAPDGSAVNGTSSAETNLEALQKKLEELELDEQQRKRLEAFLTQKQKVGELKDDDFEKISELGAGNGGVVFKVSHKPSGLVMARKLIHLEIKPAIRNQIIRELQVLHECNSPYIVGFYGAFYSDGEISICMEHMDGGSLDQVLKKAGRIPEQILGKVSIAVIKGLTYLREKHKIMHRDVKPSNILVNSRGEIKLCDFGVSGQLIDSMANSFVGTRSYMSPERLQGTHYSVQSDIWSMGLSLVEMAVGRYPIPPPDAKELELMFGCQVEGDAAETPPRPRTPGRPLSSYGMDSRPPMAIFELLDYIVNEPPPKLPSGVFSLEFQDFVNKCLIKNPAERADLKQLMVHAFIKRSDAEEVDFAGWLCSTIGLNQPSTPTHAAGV

PKN1 = PKN1 (Homo sapiens, UniProt Q16512)
EPHB3 = EPHB3 (Homo sapiens, UniProt P54753)
MAP4K5 = biological target: T1, MAP4K5 (Homo sapiens, UniProt Q9Y4K4)
T1 construct: T7 phage fusion (most assays) or DNA label after HEK293 expression; purchased DiscoveRx (KINOMEscan, LeadHunter Discovery services); host or cells: T7 phage in E. coli (BL21-derived) or HEK293

CDKL5 = CDKL5 (Homo sapiens, UniProt O76039)

Sequence of PAK4 (O96013 whole entry): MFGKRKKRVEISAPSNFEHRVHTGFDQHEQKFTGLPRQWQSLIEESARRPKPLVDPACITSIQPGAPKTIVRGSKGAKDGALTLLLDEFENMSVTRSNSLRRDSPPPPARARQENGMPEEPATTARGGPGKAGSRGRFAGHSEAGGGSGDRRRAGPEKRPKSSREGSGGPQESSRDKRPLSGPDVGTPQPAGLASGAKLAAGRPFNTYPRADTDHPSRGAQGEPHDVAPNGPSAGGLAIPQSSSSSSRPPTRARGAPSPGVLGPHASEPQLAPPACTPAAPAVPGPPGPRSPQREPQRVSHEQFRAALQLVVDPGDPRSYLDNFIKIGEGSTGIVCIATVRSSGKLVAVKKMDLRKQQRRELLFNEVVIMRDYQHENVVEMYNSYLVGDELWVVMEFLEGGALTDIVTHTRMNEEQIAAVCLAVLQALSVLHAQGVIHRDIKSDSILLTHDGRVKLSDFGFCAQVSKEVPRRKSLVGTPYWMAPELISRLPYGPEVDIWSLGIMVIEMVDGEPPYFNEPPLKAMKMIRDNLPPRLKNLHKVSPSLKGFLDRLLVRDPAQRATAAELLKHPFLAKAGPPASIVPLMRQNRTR

Nc1ncc(-c2nc3ccccc3o2)c(-c2ccncc2)n1 [Comparative Compound 324, 5-(1,3-benzoxazol-2-yl)-4-(pyridine-4-yl)pyrimidin-2-amine]
remaining binding at 10 µM (TEC): 94% | remaining binding at 10 µM (ERBB4): 100% | remaining binding at 10 µM (MAP3K2): 87% | remaining binding at 10 µM (PAK4): 98% | remaining binding at 10 µM (MYO3A): 98% | remaining binding at 10 µM (PRKCD): 86% | remaining binding at 10 µM (FGFR4): 100% | remaining binding at 10 µM [1]: 57% | remaining binding at 10 µM (CAMK1D): 96% | remaining binding at 10 µM (AMPK-alpha2): 100% | remaining binding at 10 µM (FES): 78% | remaining binding at 10 µM (CSF1R): 74% | remaining binding at 10 µM (BIKE): 100% | remaining binding at 10 µM (PKMYT1): 100% | remaining binding at 10 µM (IKK-beta): 99% | remaining binding at 10 µM (TAOK1): 100% | remaining binding at 10 µM (ROCK2): 83% | remaining binding at 10 µM (CSNK1G1): 93% | remaining binding at 10 µM (ERK1): 96% | remaining binding at 10 µM [2]: 33% | remaining binding at 10 µM (DCAMKL3): 100% | remaining binding at 10 µM (TNIK): 78% | remaining binding at 10 µM (PIK3CA (E545A)): 76% | remaining binding at 10 µM (CSNK1A1): 4.2% | remaining binding at 10 µM (KIT (A829P)): 79% | remaining binding at 10 µM (AURKA): 99% | remaining binding at 10 µM (FGR): 94% | remaining binding at 10 µM (ERK2): 99% | remaining binding at 10 µM (PKN2): 94% | remaining binding at 10 µM (BMPR2): 100% | remaining binding at 10 µM (IKK-epsilon): 82% | remaining binding at 10 µM (PIK3CA (Q546K)): 90% | remaining binding at 10 µM (BMPR1A): 100% | remaining binding at 10 µM (CTK): 100% | remaining binding at 10 µM (HUNK): 96% | remaining binding at 10 µM (PRKD3): 91% | remaining binding at 10 µM (KIT-autoinhibited): 88% | remaining binding at 10 µM (MEK1): 97% | remaining binding at 10 µM (PKN1): 100% | remaining binding at 10 µM (EPHB3): 95% | remaining binding at 10 µM (MAP4K5): 88% | remaining binding at 10 µM (CDKL5): 97%

CNc1c(C(N)=O)c2ccccn2c1C(=O)c1ccc(F)cc1 [Compound A, 2-methyl-amino-3-[(4-fluorophenyl)carbonyl]indolizine-1-carboxamide]
remaining binding at 10 µM (TEC): 88% | remaining binding at 10 µM (ERBB4): 64% | remaining binding at 10 µM (MAP3K2): 73% | remaining binding at 10 µM (PAK4): 89% | remaining binding at 10 µM (MYO3A): 98% | remaining binding at 10 µM (PRKCD): 93% | remaining binding at 10 µM (FGFR4): 100% | remaining binding at 10 µM [1]: 11% | remaining binding at 10 µM (CAMK1D): 97% | remaining binding at 10 µM (AMPK-alpha2): 99% | remaining binding at 10 µM (FES): 75% | remaining binding at 10 µM (CSF1R): 87% | remaining binding at 10 µM (BIKE): 85% | remaining binding at 10 µM (PKMYT1): 52% | remaining binding at 10 µM (IKK-beta): 90% | remaining binding at 10 µM (TAOK1): 94% | remaining binding at 10 µM (ROCK2): 71% | remaining binding at 10 µM (CSNK1G1): 88% | remaining binding at 10 µM (ERK1): 100% | remaining binding at 10 µM [2]: 15% | remaining binding at 10 µM (DCAMKL3): 100% | remaining binding at 10 µM (TNIK): 53% | remaining binding at 10 µM (PIK3CA (E545A)): 73% | remaining binding at 10 µM (CSNK1A1): 0.95% | remaining binding at 10 µM (KIT (A829P)): 86% | remaining binding at 10 µM (AURKA): 91% | remaining binding at 10 µM (FGR): 66% | remaining binding at 10 µM (ERK2): 78% | remaining binding at 10 µM (PKN2): 100% | remaining binding at 10 µM (BMPR2): 88% | remaining binding at 10 µM (IKK-epsilon): 74% | remaining binding at 10 µM (PIK3CA (Q546K)): 93% | remaining binding at 10 µM (BMPR1A): 100% | remaining binding at 10 µM (CTK): 100% | remaining binding at 10 µM (HUNK): 79% | remaining binding at 10 µM (PRKD3): 74% | remaining binding at 10 µM (KIT-autoinhibited): 78% | remaining binding at 10 µM (MEK1): 39% | remaining binding at 10 µM (PKN1): 88% | remaining binding at 10 µM (EPHB3): 42% | remaining binding at 10 µM (MAP4K5): 62% | remaining binding at 10 µM (CDKL5): 94%
